9 molecules from patent US10123954B1, “Methods for treating skin” (AVON PRODUCTS, INC., priority 2015, dated 2018) can be followed below.

Entries after “also recorded” stand apart in the source; their conditions may differ.

Holding throughout (format): cell-based
In assay [1] the test system is human dermal fibroblast (HDF) cells. Description: Hyaluronic Acid (HA) assessment in human dermal fibroblasts. As to conditions: 10 consecutive days, n=6, change over emulsion control, retinol 1 μM; for B alone (% change in HA): active B of Table 3 alone, niacinamide 0.1%, Coleus forskohlii 0.001%, Tiliacora triandra 0.1%, Tetrapeptide 4 0.10%, phytol 0.010%; for A alone (% change in HA): active A of Table 3 alone, Tiliacora triandra 0.10%, glycolic acid 1 mM, KTFK 0.001%, sodium glycolate 10 μM. As for the experimental part:
A series of experiments was conducted to assess the effects of the treatment regimens of active ingredients on the production of hyaluronic acid (HA) in human dermal fibroblast (HDF) cells. The following five treatment regimens were assessed: (1) active ingredient A, alone; (2) active ingredient B, alone; (3) the combination of active ingredients A+B; (4) active ingredient A, alone, followed by active ingredient B, alone (“A/B”); and (5) active ingredient B, alone, followed by active ingredient A, alone (“B/A”). For treatment regimens (1), (2), and (3), the active ingredients were administered to cells for 10 consecutive days. For treatment regimens (4) and (5) (sequential regimens), the cells were treated with active ingredient A or active ingredient B for 5 days, followed by active ingredient B or active ingredient A for 5 days, respectively.
Human dermal fibroblast cells were grown in 96-well plates in DMEM media (available from CORNING, N.Y.) supplemented with 10% FBS and L-glutamine. After reaching about 75% confluence, cells were transferred into DMEM media without FBS, and incubated for 4-6 hours. Different wells were assigned to one of treatment regimens (1)-(5) as described above, with six wells allocated to each treatment regimen (i.e., n=6). All active ingredients were prepared as emulsions and applied directly to the HDF cells. The specific active ingredients used in each of the five treatment regimens are provided below in Table 3. Following treatment, cells were collected and the amount of hyaluronic acid (HA) secreted from the cells was measured using a commercially available HA assay (available from CORGENIX Inc., CO).
The results are summarized below in Table 4 and plotted in FIGS. 13-17 as a percentage change over control (i.e. cells treated with the same emulsion but in absence of active ingredients).

Assay [2] shares this test system. The experiment in a line: Hyaluronic acid in human dermal fibroblasts, pulsed versus daily treatment. As to conditions: for % Change in HA over control (daily): 12 consecutive days; for % Change in HA over control (daily) / % Change in HA over control (pulsed): Tiliacora triandra 0.05%, niacinamide 0.10%, glycolic acid 1 mM, retinol 1 μM, phytol 0.01%; for % Change in HA over control (pulsed): 2 days active / 2 days media without active, repeated over 12 days; for HA production, pulsed treatment compared with daily treatment: pulsed uses half as much active over 12 days. Here is the method:
After reaching about 75% confluence, cells were transferred into DMEM media without FBS, and incubated for 4-6 hours. Different wells were assigned to one of treatment regimens (1)-(2) as described above, with six wells allocated to each treatment regimen. All active ingredients were prepared as emulsions and applied directly to the HDF cells. […] Following treatment, cells were collected and the amount of hyaluronic acid (HA) secreted from the cells was measured using a commercially available HA assay (available from […] Inc., CO).

For assay [3] the test system is unchanged. Description: Pro-collagen type I assessment in human dermal fibroblasts (ELISA). The conditions noted are these: 10 consecutive days, change from emulsion control, retinol 1 μM; for A alone (% change in pro-collagen): active A of Table 6 alone, phytol 0.0001%. Here is the method: A series of experiments was conducted to assess the effects of the treatment regimens of active ingredients shown in Table 6 on the production of pro-collagen type I in human dermal fibroblast (HDF) cells. Five different treatment regimens were assessed: (1) active ingredient A, alone; […] (3) the combination of active ingredients A+B; […] For treatment regimens (1), (2), and (3), the active ingredients were applied to cells for 10 consecutive days. […] After reaching about 75% confluence, cells were transferred into DMEM media without FBS, and incubated for 4-6 hours. Different wells were assigned to one of treatment regimens (1)-(5) as described above, with six wells allocated to each treatment regimen. All active ingredients were prepared as emulsions and applied directly to the HDF cells. The specific active ingredients used in each of the five treatment regimens are provided below in Table 6. Following treatment, measurements on the amount of pro-collagen produced from the cells were performed using a commercially available pro-collagen type I enzyme-linked immuno sorbent assay (ELISA) kit (available from TAKARA Inc., KR). [table]

Assay [4] has as its system Human dermal fibroblast cells. The experiment in a line: Pro-collagen I secretion by human dermal fibroblasts (HTRF human pro-collagen I kit). As to conditions: 0.0001% phytol or 1 μM retinol alone for 16 days, re-treated every other day. As for the experimental part:
Human dermal fibroblast cells were grown in a 6-well plate in DMEM media (available from Corning, N.Y.) supplemented with 10% Fetal Bovine Serum (FBS) and L-glutamine (1.5×10^5 cells/plate) overnight. After reaching about 75% confluence, cells were transferred into DMEM media without FBS and incubated for 4-6 hours. Next, the cells were treated with either 0.0001% phytol or 1 μM retinol. Treatment with either phytol alone, or retinol alone was performed in DMEM media without FBS for 16 days. For sequential treatments, the cells were treated with 0.0001% phytol for 6 days followed by 1 μM retinol for 10 days, or with 1 μM retinol for 6 days, followed by 0.0001% phytol for 10 days. Every other day, media were collected and cells were re-treated with phytol or retinol in the same fashion. After treatment, the amount of collagen secreted into the culture media was determined using the HTRF human pro-collagen I kit (available from CISBIO, Inc).

Assay [5] has as its system Human 3D MelanoDerm MEL-B skin tissues. Description: Melanin in 3D skin models (SOLVABLE melanin assay). The conditions noted are these: 14 consecutive days, n=6, change from control, niacinamide 0.1%; for B (% change in pigmentation): active B of Table 8 alone, hexylresorcinol 0.05%; for A (% change in pigmentation): active A of Table 8 alone, TDPA 1%. As for the experimental part:
A series of experiments was conducted to assess the effects of treatment regimens of active ingredients shown in Table 8 on the production of melanin in 3D models. Four different treatment regimens were assessed: (1) active ingredient A, alone; (2) active ingredient B, alone; (3) the combination of active ingredients A+B; and (4) active ingredient A, alone, followed by active ingredient B, alone, as detailed in Table 8. For treatment regimens (1), (2), and (3), the active ingredients were applied to cells for 14 consecutive days. For treatment regimen (4) (sequential regimen), the cells were treated with active ingredient A for 7 days, followed by treatment with the other active ingredient B for 7 days.
Human 3D MelanoDerm MEL-B skin tissues (available from MatTek, Mass.) were cultured following the manufacture instructions. Different skin tissue models were assigned to one of treatment regimens (1)-(4) as described above, with six models allocated to each treatment regimen (i.e., n=6). All active ingredients were prepared as emulsions and applied directly to the skin models. Following treatment, skin tissue models were collected and the amount of melanin produced from the cells was measured using a SOLVABLE melanin assay. Treated skin tissues were prepared using a phosphate buffer saline and sodium bicarbonate. Each skin tissue is added to 500 μl of 0.5 M SOLVABLE solubilizer (available from Packard BioScience) and incubated at 95° overnight. The absorbance of each skin tissue sample is measured at 490 nm and the absorbance is compared to a standard curve to indicate the amount of melanin produced and pigmentation in each skin tissue model.
The results for treatments measuring the melanin content produced are shown in Table 9 as a percentage change from control (i.e., untreated samples or samples treated with the same emulsion but in absence of active ingredients).

The subject of assay [6] is Human 3D skin EFT400FT tissues. Description: HA in full thickness 3D skin models. As to conditions: 4 consecutive days, n=12; 4% glycolic acid topically or 0.2% Tiliacora triandra via growth media. As for the experimental part: A series of experiments was conducted to assess the effects of the treatment regimens of glycolic acid and Tiliacora triandra on the production of hyaluronic acid (HA) on full thickness 3D skin cultures. Five different treatment regimens were assessed: (1) 4% glycolic acid, alone; (2) 0.2% Tiliacora triandra, alone; (3) the combination of 4% glycolic acid+0.2% Tiliacora triandra; (4) 4% glycolic acid, alone, followed by 0.2% Tiliacora triandra, alone; and (5) 0.2% Tiliacora triandra, alone, followed by 4% glycolic acid, alone. Glycolic acid was administered topically to the 3D tissue and Tiliacora triandra was administered via the growth media. For treatment regimens (1), (2), and (3), the active ingredient or ingredients were applied to cells for 4 consecutive days. For treatment regimens (4) and (5) (sequential regimens), the cells were treated with glycolic acid or Tiliacora triandra for 2 days, followed by Tiliacora triandra or glycolic acid for 2 days, respectively.
Human 3D skin EFT400FT tissues (MatTek, Mass.) were cultured following the manufacturer's instructions. Each treatment regimen was applied to twelve 3D skin samples. […] Following treatment, cells were collected and the amount of hyaluronic acid secreted from the cells was measured using a commercially available HA assay (available from CORGENIX Inc., CO). […]

Take Tetrapeptide-4 [Tetrapeptide 4]: the “B alone (% change in HA)” value in assay [1] came out at 15.1%.

Regarding `CC1=C(/C=C/C(C)=C/C=C/C(C)=C/CO)C(C)(C)CCC1` [Retinol], in assay [2], the “% Change in HA over control (daily)” value worked out at 17.2%; the “% Change in HA over control (pulsed)” value turned out to be 32.0%; the “HA production, pulsed treatment compared with daily treatment” value is reported as “significantly more production of hyaluronic acid than in daily treatment regimens”. Further, the “A alone (% change in pro-collagen)” value in assay [3] is listed as 13.6%. For the same molecule, the “B alone (% change in pro-collagen)” value in assay [3] (active B of Table 6 alone, Coleus forskohlii 0.001%) is 3.9%. Also, the “pro-collagen production over treatment time” value in assay [4] was “declines for both phytol- and retinol-treated cells after day 13 despite continuing treatment; also recorded: plateau in effectiveness over time”. Further, in assay [1], the “A alone (% change in HA)” value came out at 11.7% and the “B alone (% change in HA)” value amounted to 11.7%.

Turning to “Lys-Thr-Phe-Lys (KTFK; printed: Lys-Thr-Phe-Lys)”, in assay [1], the “A alone (% change in HA)” value was determined as 23.7%.

As for `C/C(=C\CO)CCC[C@H](C)CCC[C@H](C)CCCC(C)C` [Phytol], in assay [2], the “% Change in HA over control (daily)” value was −4.0%; the “% Change in HA over control (pulsed)” value stood at 25.1%; the “HA production, pulsed treatment compared with daily treatment” value is “significantly more production of hyaluronic acid than in daily treatment regimens”. Besides, the “A alone (% change in pro-collagen)” value in assay [3] is 19.1%. Further, the “pro-collagen production over treatment time” value in assay [4] was “declines for both phytol- and retinol-treated cells after day 13 despite continuing treatment; also recorded: plateau in effectiveness over time”. For the same molecule, the “B alone (% change in HA)” value in assay [1] is 67.7%.

As for `CCCCCCc1ccc(O)cc1O` [Hexylresorcinol], the “B (% change in pigmentation)” value in assay [5] amounted to 140.4%.

Turning to `O=C(O)CCSCCC(=O)O` [TDPA, thiodipropionic acid], the “A (% change in pigmentation)” value in assay [5] is reported as −19.1%.

Consider `O=C(O)CO` [Glycolic Acid], for which, in assay [2], the “% Change in HA over control (daily)” value is given as 9.1%; the “% Change in HA over control (pulsed)” value stood at 5.1%; the “HA production, pulsed treatment compared with daily treatment” value was “only slightly less effective than daily treatment”. In addition, the “percentage change in HA over control, active alone” value in assay [6] turned out to be 42.6%. Further, the “A alone (% change in HA)” value in assay [1] is recorded as 20.8%.

Regarding `O=C([O-])CO.[Na+]` [Sodium Glycolate], the “A alone (% change in HA)” value in assay [1] was −2.54%.

Consider `NC(=O)c1cccnc1` [Niacinamide], for which, in assay [2], the “% Change in HA over control (daily)” value is listed as −36.5% and the “% Change in HA over control (pulsed)” value was 1.3%. Besides, the “B alone (% change in HA)” value in assay [1] is reported as −51.6%. For the same molecule, in assay [5], the “A (% change in pigmentation)” value was −18.9% and the “B (% change in pigmentation)” value is listed as −18.9%.
